Common to all, as to assay: growth of human tumour cells (NCI), 48 h
The subject of assay [1] is NCI/ADR-RES ovarian.
For assay [2], the system named is EKVX NSCLC.
Assay [3] concerns SW-620 colon.
Assay [4] concerns SK-MEL-2 melanoma.
Assay [5] relates to MDA-MB-435.
Assay [6] concerns SK-MEL-28 melanoma.
The test system of assay [7] is OVCAR-8 ovarian.
Assay [8] concerns MDA-MB-231 breast.
For assay [9], the system named is A498 renal.
For assay [10], the system named is MOLT-4 leukemia.

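A five-concentration, 48-hour dose response in 96-well plates underlies each endpoint, interpolated linearly between surrounding concentrations. The concentration for 50% growth inhibition is given as GI50. The concentration for full growth arrest is given as TGI.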

For the compound `COc1ccc2c(O)c(/C=C3\N=Nc4ncccc43)oc2c1C[C@H]1CCNC[C@H]1F`, the GI50 in assay [1] is 3.37 µM; in assay [2] it was 0.484 µM; in assay [3], 0.291 µM; in [4], 1.1 µM; in assay [5], 0.467 µM; in [6], 2.22 µM. The GI50 in assay [7] was 0.477 µM; in assay [8], 0.184 µM; in assay [9], 0.238 µM; in assay [10] it was 0.294 µM. Moreover, the TGI in assay [1] was determined as 28.9 µM; in assay [2], 9.62 µM; in [3], 2.22 µM; in assay [4], 3.73 µM; in [5], 10.6 µM; in [6], 12 µM. The TGI came to 12.3 µM in [7], 3.02 µM in [8], 2.91 µM in [9] and 1.62 µM in assay [10].

In the case of `COc1ccc(N2CCN(CN3CCN(c4ccc(OC)cc4)C3)C2)cc1`, the GI50 in [1] was over 100 µM; in assay [2] it was over 100 µM; in assay [3], 28.2 µM; in assay [4] it was over 100 µM; in assay [5], over 100 µM; in assay [6], over 100 µM. For the same compound, the GI50 in [7] was over 100 µM; in [8] it was over 100 µM; in assay [9], 1.82 µM; in [10], 12.3 µM. For the same compound, the TGI in [1], in assay [2], in [3], in assay [4], in [5] and in assay [6] was over 100 µM in each case. The TGI is over 100 µM in assay [7], over 100 µM in assay [8], over 100 µM in assay [9] and 37.2 µM in assay [10].

Regarding `C=CC(=O)NCCOc1cccc(Nc2cc(NCCCNC(=O)C3CCC3)c(Br)cn2)c1`, the GI50 in assay [1] is 8.74 µM; in [2], 2.31 µM; in assay [3] it was 0.904 µM; in assay [4], 2.62 µM; in [5], 2.49 µM; in [6], 1.64 µM. Moreover, the GI50 in [7] was 1.82 µM; in assay [8], 0.478 µM; in [9], 0.52 µM; in [10], 1.37 µM. Also, the TGI was over 25 µM in assay [1]; 22.5 µM in assay [2]; 6.53 µM in assay [3]; 6.55 µM in assay [4]; 6.03 µM in assay [5]; 8.78 µM in [6]. Further, the TGI in assay [7] was over 25 µM; in assay [8], 1.48 µM; in assay [9], 1.8 µM; in assay [10], over 25 µM.

For the compound `COc1cccc2c1nc1cccc(OC)c1[n+]2[O-]`, the GI50 in [1] is 5.51 µM; in assay [2], 13.7 µM; in [3], 3 µM; in assay [4] it was 5.44 µM; in [5], 16.8 µM; in [6], 6.31 µM. For the same compound, the GI50 in assay [7] is 4.4 µM; in [8] it was 16.4 µM; in assay [9] it was 2.87 µM; in assay [10] it was 0.46 µM. In addition, the TGI came out at 28.4 µM in [1]; 30.9 µM in assay [2]; 15.9 µM in [3]; 18.4 µM in assay [4]; 44.8 µM in assay [5]; 20.2 µM in assay [6]. Moreover, the TGI came to 25 µM in [7], 41.4 µM in [8], 16.2 µM in assay [9] and 2.62 µM in assay [10].

Take `O=C1c2ccc3c4c(ccc(c24)C(=O)N1CCCNCc1ccccc1)C(=O)N(CCCNCc1ccccc1)C3=O`: the GI50 in assay [1] is 0.236 µM; in [2] it was 0.165 µM; in assay [3], 0.0758 µM; in assay [4] it was 0.178 µM; in assay [5] it was 0.18 µM; in assay [6], 0.247 µM. For the same compound, the GI50 in assay [7] was 0.0993 µM; in assay [8] it was 0.238 µM; in assay [9] it was 0.951 µM; in assay [10] it was 0.0858 µM. Besides, the TGI in [1] came to 0.779 µM; in assay [2], 0.323 µM; in assay [3], 0.326 µM; in assay [4], 0.363 µM; in assay [5], 0.356 µM; in [6], 0.636 µM. The TGI amounted to 0.407 µM in assay [7], 0.917 µM in assay [8], 2.18 µM in [9] and 0.437 µM in assay [10].

Regarding `Cc1ccc(Nc2[nH]c(C(=O)c3ccc(Cl)cc3)c(N)c2C(=S)Nc2ccccc2)nc1`, the GI50 is 15.9 µM in [1]; 35.5 µM in assay [2]; 32.7 µM in [3]; 28.1 µM in assay [4]; 23 µM in assay [5]; 55.2 µM in [6]. For the same compound, the GI50 in assay [7] was 22 µM; in assay [8], 21.4 µM; in assay [9] it was 23.4 µM; in [10] it was 56.3 µM. Further, the TGI is 87.7 µM in [1]; over 100 µM in [2]; over 100 µM in [3]; over 100 µM in assay [4]; 96.3 µM in assay [5]; over 100 µM in [6]. Also, the TGI in assay [7] was 97.3 µM; in assay [8] it was 64.7 µM; in assay [9], 61.8 µM; in assay [10] it was over 100 µM.

As to `CN(C)CCN1C(=O)c2cccc3c(N)ccc(c23)C1=O`, the GI50 in assay [1] is 16.9 µM; in assay [2] it was 14.2 µM; in assay [3] it was 10.1 µM; in assay [4], 11.6 µM; in assay [5], 11.1 µM; in assay [6], 11.9 µM. The GI50 in assay [7] is 9.53 µM; in assay [8] it was 16 µM; in [9] it was 11.5 µM; in [10] it was 6.82 µM. Besides, the TGI in assay [1], in assay [2], in assay [3], in assay [4], in [5] and in [6] was over 25 µM each time. Besides, the TGI in assay [7] is over 25 µM; in [8], over 25 µM; in assay [9], over 25 µM; in assay [10] it was 20.2 µM.

Values taken from PubChem BioAssay (NCI).
